Measurements: patent US20120029187A1, “HALOALKYLSULFONANILIDE DERIVATIVE” (Nissan Chemical Industries, Ltd., priority 2009, published 2012)

What was measured:
Format in all cases: in vivo
barnyardgrass [1] = assay: Test Example 1: herbicidal effects in preemergence treatment under submerged conditions; settings: dose 2.52 g/a
Method in brief: (§1)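 Alluvial soil flooded to 4 cm depth; barnyardgrass, bulrush and ducksalad sown and 2.5-leaf rice seedlings transplanted. Same day, water-diluted emulsifiable concentrates applied to the water surface at set doses (g/a). Kept at 25–30 °C in greenhouse; effects scored 0–5 by mortality after three weeks.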

bulrush [2] = assay: as above; settings: dose 2.52 g/a
Method in brief: as §1

ducksalad [3] = assay: as above; settings: dose 2.52 g/a
Method in brief: as §1

transplanted rice = assay: Test Example 1: preemergence treatment under submerged conditions, effect on crop; settings: dose 2.52 g/a
Method in brief: as §1

barnyardgrass [4] = assay: Test Example 2: herbicidal effects during the vegetation period under submerged conditions; settings: treatment during the vegetation period under submerged conditions; dose 2.52 g/a
Method in brief: (§2)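 Barnyardgrass, bulrush and ducksalad were co-sown in alluvial soil flooded to 4 cm and grown in a greenhouse at 25 to 30° C. At the 1- or 2-leaf stage, water-diluted emulsifiable concentrates went onto the water surface at set doses (g/a). Herbicidal effect was scored three weeks later on a graded scale.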

bulrush [5] = assay: as above; settings: treatment during the vegetation period under submerged conditions; dose 2.52 g/a
Method in brief: as §2

ducksalad [6] = assay: as above; settings: treatment during the vegetation period under submerged conditions; dose 2.52 g/a
Method in brief: as §2

Italian ryegrass [7] = assay: Test Example 3: herbicidal effects in soil treatment; settings: dose 3.2 g/a
Method in brief: (§3)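 Seeds were sown in sterilized diluvial soil and covered with about 1.5 cm of soil. Compounds, formulated as emulsifiable concentrates and diluted with water, were sprayed evenly over the soil surface at set doses in g/a. Herbicidal effect was scored on a rating scale three weeks later.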

barnyardgrass [8] = assay: as above; settings: dose 3.2 g/a
Method in brief: as §3

beadstraw [9] = assay: as above; settings: dose 3.2 g/a
Method in brief: as §3

common chickweed [10] = assay: as above; settings: dose 3.2 g/a
Method in brief: as §3

common lambsquater [11] = assay: as above; settings: dose 3.2 g/a
Method in brief: as §3

common ragweed [12] = assay: as above; settings: dose 3.2 g/a
Method in brief: as §3

giant foxtail [13] = assay: as above; settings: dose 3.2 g/a
Method in brief: as §3

large crabgrass [14] = assay: as above; settings: dose 3.2 g/a
Method in brief: as §3

posumbu knotweed [15] = assay: as above; settings: dose 3.2 g/a
Method in brief: as §3

redroot pigweed [16] = assay: as above; settings: dose 3.2 g/a
Method in brief: as §3

velvetleaf [17] = assay: as above; settings: dose 3.2 g/a
Method in brief: as §3

water foxtail [18] = assay: as above; settings: dose 3.2 g/a
Method in brief: as §3

wild oat [19] = assay: as above; settings: dose 3.2 g/a
Method in brief: as §3

Italian ryegrass [20] = assay: Test Example 4: herbicidal effect in foliage treatment; settings: dose 3.2 g/a
Method in brief: (§4)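 Weeds and crops sown in sterilized diluvial soil under ~1.5 cm cover and grown in greenhouse at 25 to 30° C. At 14 days, water-diluted emulsifiable concentrate sprayed onto foliage at set doses (g/a); herbicidal effect scored on a rating scale three weeks after application.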

barnyardgrass [21] = assay: as above; settings: dose 3.2 g/a
Method in brief: as §4

beadstraw [22] = assay: as above; settings: dose 3.2 g/a
Method in brief: as §4

common chickweed [23] = assay: as above; settings: dose 3.2 g/a
Method in brief: as §4

common lambsquater [24] = assay: as above; settings: dose 3.2 g/a
Method in brief: as §4

common ragweed [25] = assay: as above; settings: dose 3.2 g/a
Method in brief: as §4

giant foxtail [26] = assay: as above; settings: dose 3.2 g/a
Method in brief: as §4

large crabgrass [27] = assay: as above; settings: dose 3.2 g/a
Method in brief: as §4

posumbu knotweed [28] = assay: as above; settings: dose 3.2 g/a
Method in brief: as §4

redroot pigweed [29] = assay: as above; settings: dose 3.2 g/a
Method in brief: as §4

velvetleaf [30] = assay: as above; settings: dose 3.2 g/a
Method in brief: as §4

water foxtail [31] = assay: as above; settings: dose 3.2 g/a
Method in brief: as §4

wild oat [32] = assay: as above; settings: dose 3.2 g/a
Method in brief: as §4

[33] = three weeks after the application

Structure (SMILES): CN(c1ccccc1CN1COC(C)(C)CC1=O)S(=O)(=O)C(F)(F)F [II-18]
- A: barnyardgrass, herbicidal effect (evaluation scale 0-5) (barnyardgrass [1]): 2 (mortality of at least 20% and less than 40%)
- B: bulrush, herbicidal effect (evaluation scale 0-5) (bulrush [2]): 5 (mortality of 90% or above (nearly complete death))
- C: ducksalad, herbicidal effect (evaluation scale 0-5) (ducksalad [3]): 0 (mortality of less than 5% (almost ineffective))
- a: transplanted rice, effect on crop (evaluation scale 0-5) (transplanted rice): 0 (mortality of less than 5% (almost ineffective))
- A: barnyardgrass, herbicidal effect (evaluation scale 0-5) (barnyardgrass [4]): 5 (mortality of 90% or above (nearly complete death))
- B: bulrush, herbicidal effect (evaluation scale 0-5) (bulrush [5]): 5 (mortality of 90% or above (nearly complete death))
- C: ducksalad, herbicidal effect (evaluation scale 0-5) (ducksalad [6]): 2 (mortality of at least 20% and less than 40%)
- H: Italian ryegrass, herbicidal effect (evaluation scale 0-5) (Italian ryegrass [7]): 0 (mortality of less than 5% (almost ineffective))
- A: barnyardgrass, herbicidal effect (evaluation scale 0-5) (barnyardgrass [8]): 4 (mortality of at least 70% and less than 90%)
- O: beadstraw, herbicidal effect (evaluation scale 0-5) (beadstraw [9]): 4 (mortality of at least 70% and less than 90%)
- N: common chickweed, herbicidal effect (evaluation scale 0-5) (common chickweed [10]): 4 (mortality of at least 70% and less than 90%)
- L: common lambsquater, herbicidal effect (evaluation scale 0-5) (common lambsquater [11]): 0 (mortality of less than 5% (almost ineffective))
- J: common ragweed, herbicidal effect (evaluation scale 0-5) (common ragweed [12]): 4 (mortality of at least 70% and less than 90%)
- E: giant foxtail, herbicidal effect (evaluation scale 0-5) (giant foxtail [13]): 0 (mortality of less than 5% (almost ineffective))
- D: large crabgrass, herbicidal effect (evaluation scale 0-5) (large crabgrass [14]): 0 (mortality of less than 5% (almost ineffective))
- M: posumbu knotweed, herbicidal effect (evaluation scale 0-5) (posumbu knotweed [15]): 0 (mortality of less than 5% (almost ineffective))
- K: redroot pigweed, herbicidal effect (evaluation scale 0-5) (redroot pigweed [16]): 0 (mortality of less than 5% (almost ineffective))
- I: velvetleaf, herbicidal effect (evaluation scale 0-5) (velvetleaf [17]): 0 (mortality of less than 5% (almost ineffective))
- G: water foxtail, herbicidal effect (evaluation scale 0-5) (water foxtail [18]): 0 (mortality of less than 5% (almost ineffective))
- F: wild oat, herbicidal effect (evaluation scale 0-5) (wild oat [19]): 0 (mortality of less than 5% (almost ineffective))
- H: Italian ryegrass, herbicidal effect (Italian ryegrass [20]; three weeks after application): 0 (mortality of less than 5% (almost ineffective))
- A: barnyardgrass, herbicidal effect (barnyardgrass [21]; three weeks after application): 4 (mortality of at least 70% and less than 90%)
- O: beadstraw, herbicidal effect (beadstraw [22]; three weeks after application): 5 (mortality of 90% or above (nearly complete death))
- N: common chickweed, herbicidal effect (common chickweed [23]; three weeks after application): 4 (mortality of at least 70% and less than 90%)
- L: common lambsquater, herbicidal effect (common lambsquater [24]; three weeks after application): 0 (mortality of less than 5% (almost ineffective))
- J: common ragweed, herbicidal effect (common ragweed [25]; three weeks after application): 3 (mortality of at least 40% and less than 70%)
- E: giant foxtail, herbicidal effect (giant foxtail [26]; three weeks after application): 0 (mortality of less than 5% (almost ineffective))
- D: large crabgrass, herbicidal effect (large crabgrass [27]; three weeks after application): 0 (mortality of less than 5% (almost ineffective))
- M: posumbu knotweed, herbicidal effect (posumbu knotweed [28]; three weeks after application): 3 (mortality of at least 40% and less than 70%)
- K: redroot pigweed, herbicidal effect (redroot pigweed [29]; three weeks after application): 0 (mortality of less than 5% (almost ineffective))
- I: velvetleaf, herbicidal effect (velvetleaf [30]; three weeks after application): 0 (mortality of less than 5% (almost ineffective))
- G: water foxtail, herbicidal effect (water foxtail [31]; three weeks after application): 0 (mortality of less than 5% (almost ineffective))
- F: wild oat, herbicidal effect (wild oat [32]; three weeks after application): 0 (mortality of less than 5% (almost ineffective))

Structure (SMILES): O=C1CCSCN1Cc1ccccc1NS(=O)(=O)C(F)(F)F [II-78]
- A: barnyardgrass, herbicidal effect (evaluation scale 0-5) (barnyardgrass [1]): 5 (mortality of 90% or above (nearly complete death))
- B: bulrush, herbicidal effect (evaluation scale 0-5) (bulrush [2]): 5 (mortality of 90% or above (nearly complete death))
- C: ducksalad, herbicidal effect (evaluation scale 0-5) (ducksalad [3]): 5 (mortality of 90% or above (nearly complete death))
- a: transplanted rice, effect on crop (evaluation scale 0-5) (transplanted rice): 0 (mortality of less than 5% (almost ineffective))
- A: barnyardgrass, herbicidal effect (evaluation scale 0-5) (barnyardgrass [4]): 5 (mortality of 90% or above (nearly complete death))
- B: bulrush, herbicidal effect (evaluation scale 0-5) (bulrush [5]): 5 (mortality of 90% or above (nearly complete death))
- C: ducksalad, herbicidal effect (evaluation scale 0-5) (ducksalad [6]): 5 (mortality of 90% or above (nearly complete death))
- herbicidal effect, H: Italian ryegrass (Italian ryegrass [7]): 5 (mortality of 90% or above (nearly complete death))
- herbicidal effect, A: barnyardgrass (barnyardgrass [8]): 5 (mortality of 90% or above (nearly complete death))
- herbicidal effect, O: beadstraw (beadstraw [9]): 0 (mortality of less than 5% (almost ineffective))
- herbicidal effect, N: common chickweed (common chickweed [10]): 5 (mortality of 90% or above (nearly complete death))
- herbicidal effect, L: common lambsquater (common lambsquater [11]): 4 (mortality of at least 70% and less than 90%)
- herbicidal effect, J: common ragweed (common ragweed [12]): 4 (mortality of at least 70% and less than 90%)
- herbicidal effect, E: giant foxtail (giant foxtail [13]): 5 (mortality of 90% or above (nearly complete death))
- herbicidal effect, D: large crabgrass (large crabgrass [14]): 5 (mortality of 90% or above (nearly complete death))
- herbicidal effect, M: posumbu knotweed (posumbu knotweed [15]): 4 (mortality of at least 70% and less than 90%)
- herbicidal effect, K: redroot pigweed (redroot pigweed [16]): 3 (mortality of at least 40% and less than 70%)
- herbicidal effect, I: velvetleaf (velvetleaf [17]): 5 (mortality of 90% or above (nearly complete death))
- herbicidal effect, G: water foxtail (water foxtail [18]): 5 (mortality of 90% or above (nearly complete death))
- herbicidal effect, F: wild oat (wild oat [19]): 0 (mortality of less than 5% (almost ineffective))
- H: Italian ryegrass, herbicidal effect (Italian ryegrass [20]; [33]): 5 (mortality of 90% or above (nearly complete death))
- A: barnyardgrass, herbicidal effect (barnyardgrass [21]; [33]): 4 (mortality of at least 70% and less than 90%)
- O: beadstraw, herbicidal effect (beadstraw [22]; [33]): 5 (mortality of 90% or above (nearly complete death))
- N: common chickweed, herbicidal effect (common chickweed [23]; [33]): 4 (mortality of at least 70% and less than 90%)
- L: common lambsquater, herbicidal effect (common lambsquater [24]; [33]): 4 (mortality of at least 70% and less than 90%)
- J: common ragweed, herbicidal effect (common ragweed [25]; [33]): 4 (mortality of at least 70% and less than 90%)
- E: giant foxtail, herbicidal effect (giant foxtail [26]; [33]): 4 (mortality of at least 70% and less than 90%)
- D: large crabgrass, herbicidal effect (large crabgrass [27]; [33]): 4 (mortality of at least 70% and less than 90%)
- M: posumbu knotweed, herbicidal effect (posumbu knotweed [28]; [33]): 4 (mortality of at least 70% and less than 90%)
- K: redroot pigweed, herbicidal effect (redroot pigweed [29]; [33]): 4 (mortality of at least 70% and less than 90%)
- I: velvetleaf, herbicidal effect (velvetleaf [30]; [33]): 5 (mortality of 90% or above (nearly complete death))
- G: water foxtail, herbicidal effect (water foxtail [31]; [33]): 5 (mortality of 90% or above (nearly complete death))
- F: wild oat, herbicidal effect (wild oat [32]; [33]): 0 (mortality of less than 5% (almost ineffective))
